Assay results taken from US10342766B2, “6-shogaol derivatives and activities thereof” (North Carolina Agricultural and Technical State University, priority 2017, dated 2019).
Where “and” joins values, the source holds several entries; their conditions need not be identical. Identical values can stand only once.

Experiments:
[1] = tested on: Nrf2; test: Nrf2 reporter activity by Tg(gstp1:GFP) fluorescence in transgenic zebrafish embryos; format: in vivo; conditions: 5 μM, 24-hour treatment from 1 dpf to 2 dpf; olfactory epithelia; relative to vehicle (DMSO = 1.00)
Protocol: Zebrafish AB transgenic strains Tg(gstp1:GFP) were maintained in a Pentair Aquatic Ecosystem (Apopka, Fla., United States of America) fish housing unit with 14 h light/10 h dark cycle (see Tsujita, T., Li, L., Nakajima, H., Iwamoto, N., Nakajima-Takagi, Y., Ohashi, K., Kawakami, K., Kumagai, Y., Freeman, B. A., Yamamoto, M., and Kobayashi, M. (2011) “Nitro-fatty acids and cyclopentenone prostaglandins share strategies to activate the Keap1-Nrf2 system: a study using green fluorescent protein transgenic zebrafish.” Genes Cells 16, 46-57). The fish embryos were maintained at 28.5° C. in 0.3× Danieau's solution (19.3 mM NaCl, 0.23 mM KCl, 0.13 mM MgSO4, 0.2 mM Ca(NO3)2, 1.7 mM HEPES, pH 7.0) containing 30 μg/ml phenylthiourea (PTU) to inhibit pigmentation. Tg(gstp1:GFP) cross with AB wild-type strain fluorescence embryos were used for the experiment. Zebrafish embryos were washed, dechorionated and anaesthetized before observations, and fluorescence imaging for analysis.
Transgenic zebrafish embryos at 1 day-post-fertilization (dpf) were dechorionated and placed in Petri dishes containing different chemicals diluted in 0.3× Danieau's solution containing PTU. The chemical stock was dissolved in DMSO at 5 mM concentration.
An Olympus MVX10 Fluorescence Macroscope (Olympus, Center Valley, Pa., United States of America) equipped with a Hamamatsu C9300-221 high-speed digital CCD camera (Hamamatsu City, Japan) was used for fluorescence microscopy. Tg(gstp1:GFP) fluorescent embryos were anaesthetized in tricaine and imaged at 2 dpf. MetaMorph Basic software (Olympus, Center Valley, Pa., United States of America) was used for image acquisition and analysis.
Quantification of Nrf2 Reporter Activity by Tg(gstp1:
GFP) Fluoresence in Zebrafish Model. The fluorescence intensity of the olfactory neural epithelia was quantitated using MetaMorph Basic software. In brief, GFP expression in the olfactory regions of Tg(gstp1:GFP) embryos treated with various chemicals was measured after 24-hour treatment from 1 dpf to 2 dpf. The GFP induction was detectable by fluorescence signal at the area of the olfactory epithelia in the anterior of the head region, the intensity was measured using an area of a circle of 60 pixel diameter of the fluorescence olfactory epithelia subtracted by a background non-fluorescence area next to the zebrafish embryo. Both the left and right olfactory epithelia were measured to give an average fluorescence value. The values are an average of measurements from at least 10 embryos.

[2] = Formation of cysteine conjugates in mice (urine, LC/MS); format: in vivo, mouse; conditions: oral gavage 200 mg/kg, urine collected in 24 h
Protocol: LC/MS analysis was carried out with a Thermo-Finnigan Spectra System, which consisted of an Accela high speed MS pump, an Accela refrigerated autosampler, and an LCQ Fleet ion trap mass detector (Thermo Electron, San Jose, Calif., United States of America) incorporated with an electrospray ionization (ESI) interface. A Gemini-NX C18 column (150 mm×4.6 mm i.d., 5 μm; Phenomenex, Torrance, Calif., United States of America) was used for separation at a flow rate of 0.3 mL/min. The column was eluted with 100% A (5% aqueous methanol with 0.2% formic acid) for 1 min, followed by linear increases in B (95% aqueous methanol with 0.2% formic acid) to 55% from 1 to 4 min, to 85% from 4 to 25 min, then to 100% B from 25 to 30 min, and then with 100% B from 30 to 35 min. The column was then re-equilibrated with 100% A for 5 min. The LC eluent was introduced into the ESI interface. The positive ion polarity mode was set for the ESI source with the voltage on the ESI interface maintained at approximately 4.6 kV. Nitrogen gas was used as the sheath gas and auxiliary gas. […] The mass range was measured from 100 to 800 m/z. […]
Enzymatic deconjugation of mouse urine was performed as described previously with slight modifications. […] The resulting suspension was centrifuged at 17,000 g for 5 min, and 10 μL of supernatant was analyzed directly by LC/MS.

CCCCCCCC(=O)/C=C/c1ccc(O)c(O)c1 [Compound 27]
Ratio/CTL, Tg(gstp1:GFP) fluorescence signal [1]: 9.19 and 9.19 ± 0.12 | Cysteine conjugates found in mouse urine [2]: conjugate 36 and its reduced form 36a, three additional conjugates 37, 37a, and 37b
